The values that follow come from patent publication US20040258771A1 (priority 2001, published 2004).

Series [1] deals with mice. As to conditions: cited from earlier work.
Series [2] deals with tumor growth. Particulars: has been shown (prior knowledge); cited from earlier work.
The subject of series [3] is Ovarian cancer cells. The series is described as follows: Human cancer cell assessment, ovarian. Format: cell-based. From the text:
As a quick secondary screen, the additive alone and in combination with the target drug was examined in these human cancer cell lines. The results of TK-211 are shown as a specific example.

In the case of `NCCCNCCSP(=O)(O)O` [Amifostine], in series [1], the “known reduction of cisplatin side effects” value is “only to slightly reduce weight loss and hypothermia”. Further, the “effect on cisplatin efficacy” value in series [2] is reported as “slight impairment of cisplatin efficacy”.

On to `N.N.[Cl][Pt][Cl]` [Cisplatin, cis-diamine-dichloroplatinum (II)], for which the Cell survival in series [3] (1 μg/ml) stood at 3%; in series [3] (2 μg/ml), 1%.
